How the values were obtained:
Type in all cases: in vivo
Poa annua (POAAN) = assay: A. Herbicidal pre-emergence efficacy, POAAN
Method in brief: (§1)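 Pre-emergence soil-surface spray in sandy loam pots, WP/EC in water plus 0.5% additive, 600 L/ha. Visual % damage rating after about 3 weeks in greenhouse vs. untreated; 0% = control-like, 100% = dead plants. Rates up to 1280 g/ha.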

Setaria viridis (SETVI) [1] = assay: C. Herbicidal pre-emergence efficacy, SETVI; details: scored after about 3 weeks
Source text: Seeds of monocotyledonous and dicotyledonous weed plants and crop plants were placed in plastic or organic planting pots and covered with soil. The compounds of the invention, formulated in the form of wettable powders (WP) or as emulsion concentrates (EC), were then applied to the surface of the covering soil as aqueous suspension or emulsion with addition of 0.5% additive at a water application rate equivalent to 600 l/ha (converted). After the treatment, the pots were placed in a greenhouse and kept under good growth conditions for the test plants. After about 3 weeks, the efficacy of the preparations was scored visually in comparison with untreated controls as percentages. For example, • 100% efficacy=plants have died, • 0% efficacy=like untreated control plants.
Tables C1a to C14b below show the effects of selected compounds of the general formula (I) according to table 1 on various harmful plants at an application rate corresponding to 320 g/ha or less, which were obtained by the experimental procedure mentioned above.

[2] = system: Echinochloa crus-galli (ECHCG); assay: B. Herbicidal post-emergence efficacy, ECHCG; details: rated visually after about 3 weeks
Method in brief: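 Post-emergence foliar spray, at application rates of 1280 g/ha or less, on one-leaf-stage plants 2–3 weeks post-sowing, using aqueous WP or EC suspensions with 0.5% additive at 600 L/ha. Visual percent efficacy relative to untreated plants scored roughly 3 weeks later in the greenhouse.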

Setaria viridis (SETVI) [3] = assay: E. Herbicidal post-emergence efficacy, SETVI
Protocol: (§2) Seeds of monocotyledonous and dicotyledonous weeds and crop plants were placed in sandy loam in plastic or organic planting pots, covered with soil and cultivated in a greenhouse under controlled growth conditions. 2 to 3 weeks after sowing, the test plants were treated at the one-leaf stage. The compounds of the invention, formulated in the form of wettable powders (WP) or as emulsion concentrates (EC), were then sprayed onto the green parts of the plants as aqueous suspension or emulsion with addition of 0.5% additive at a water application rate of 600 l/ha (converted). After the test plants had been kept in the greenhouse under optimum growth conditions for about 3 weeks, the activity of the preparations was rated visually in comparison to untreated controls.
(§3) For example, • 100% efficacy=plants have died, • 0% action=like untreated control plants.
Tables E1a to E12b below show the effects of selected compounds of the general formula (I) according to table 1 on various harmful plants at an application rate corresponding to 320 g/ha or less, which were obtained by the experimental procedure mentioned above.

[4] = system: Matricaria inodora (MATIN); assay: A. Herbicidal pre-emergence efficacy, MATIN
Method in brief: as §1

Setaria viridis (SETVI) [5] = assay: A. Herbicidal pre-emergence efficacy, SETVI
Method in brief: as §1

[6] = system: Triticum aestivum (TRZAS); assay: F. Post-emergence effect on useful plants, TRZAS; details: useful plant
Protocol: as §2, §3
Tables F1a to F4 below show the effects of selected compounds of the general formula (I) according to table 1 on various useful plants at an application rate corresponding to 320 g/ha or less, which were obtained by the experimental procedure mentioned above.

[7] = pre-emergence, dosage 1280 g/ha
[8] = 320 g/ha, scored visually after about 3 weeks vs untreated controls

Row | SMILES | Pre-emergence efficacy against POAAN (Poa annua (POAAN); dosage 80 g/ha) | Pre-emergence efficacy against POAAN (Poa annua (POAAN); dosage 320 g/ha) | Pre-emergence efficacy against POAAN (Poa annua (POAAN); dosage 1280 g/ha) | Pre-emergence efficacy against SETVI (Setaria viridis (SETVI) [1]; 80 g/ha) | Pre-emergence efficacy against SETVI (Setaria viridis (SETVI) [1]; 320 g/ha) | Post-emergence efficacy against ECHCG in % ([2]; 80 g/ha) | Post-emergence efficacy against ECHCG in % ([2]; 320 g/ha) | Post-emergence efficacy against ECHCG in % ([2]; 1280 g/ha) | Post-emergence efficacy against SETVI in % (Setaria viridis (SETVI) [3]; application rate 80 g/ha) | Post-emergence efficacy against SETVI in % (Setaria viridis (SETVI) [3]; application rate 320 g/ha) | Pre-emergence efficacy against MATIN [4, 7] | Pre-emergence efficacy against SETVI (Setaria viridis (SETVI) [5]; dosage 80 g/ha) | Pre-emergence efficacy against SETVI (Setaria viridis (SETVI) [5]; dosage 320 g/ha) | Pre-emergence efficacy against SETVI (Setaria viridis (SETVI) [5]; dosage 1280 g/ha) | Post-emergence efficacy against TRZAS in % ([6]; application rate 80 g/ha) | Pre-emergence efficacy against MATIN [4, 8] | Post-emergence efficacy against TRZAS in % ([6]; application rate 320 g/ha)
1 | O=S(=O)(CCCCl)Oc1ccccc1Oc1ncc(Cl)cn1 [Example I-2] | 100% | 100% | 100% | 100% | 100% | 90% | 100% | 100% | 100% | 100% | 100% | 100% | 100% | 100% | 0% | – | –
2 | CCCS(=O)(=O)Oc1ccccc1Oc1ncc(Cl)cn1 [Example I-3] | 90% | 100% | 100% | 100% | 100% | – | – | 90% | – | 90% | 100% | 100% | 100% | 100% | 0% | 100% | 10%
3 | O=S(=O)(CCCCl)Oc1ccccc1Oc1ncc(F)cn1 [Example I-5] | 90% | 100% | 100% | 90% | 100% | 90% | 100% | 100% | 90% | 100% | 100% | 100% | 100% | 100% | 20% | 90% | –
4 | CCCCS(=O)(=O)Oc1ccccc1Oc1ncc(Cl)cn1 [Example I-6] | – | 90% | 90% | 90% | 100% | – | 90% | 90% | 90% | 100% | 100% | 90% | 90% | 100% | – | – | –
5 | CC(C)CS(=O)(=O)Oc1ccccc1Oc1ncc(Cl)cn1 [Example I-7, [2-(5-Chloropyrimidin-2-yl)oxyphenyl] 2-methylpropane-1-sulfonate] | 100% | 100% | 100% | 100% | 100% | – | 90% | 90% | 90% | 100% | 100% | 100% | 100% | 100% | 20% | 100% | –
6 | O=S(=O)(CCCC(F)(F)F)Oc1ccccc1Oc1ncc(Cl)cn1 [Example I-10] | 100% | 100% | 100% | 100% | 100% | 100% | 100% | 100% | 100% | 100% | 100% | 90% | 90% | 100% | – | 100% | –
7 | Cc1cccc(OS(=O)(=O)CCCCl)c1Oc1ncc(Cl)cn1 [Example I-12] | – | 100% | 100% | – | – | – | – | – | – | 90% | 100% | – | 100% | 100% | 0% | 90% | 0%
8 | O=S(=O)(CCCCl)Oc1cccc(F)c1Oc1ncc(Cl)cn1 [Example I-13] | – | 90% | 100% | – | – | – | – | 90% | – | – | – | – | – | 100% | 10% | – | 10%
9 | O=S(=O)(CCCCCl)Oc1ccccc1Oc1ncc(Cl)cn1 [Example I-15] | 100% | 100% | 100% | 80% | 100% | 90% | 100% | 100% | 80% | 100% | – | 100% | 100% | 100% | – | – | –
10 | CCS(=O)(=O)Oc1ccccc1Oc1ncc(Cl)cn1 [Example I-16] | – | 100% | 100% | – | – | – | – | 90% | – | – | 100% | – | 100% | 100% | – | 100% | –
11 | CCCCCS(=O)(=O)Oc1ccccc1Oc1ncc(Cl)cn1 [Example I-24] | – | 100% | 100% | – | 80% | – | – | 100% | – | 100% | – | – | 100% | 100% | 0% | – | 0%
12 | Cc1cccc(Oc2ncc(Cl)cn2)c1OS(=O)(=O)CCCC(F)(F)F [Example I-28, 2-[(5-Chloropyrimidin-2-yl)oxy]-6-methylphenyl 4,4,4-trifluorobutane-1-sulfonate] | 90% | 100% | 100% | – | – | – | 90% | 100% | – | – | 100% | 100% | 100% | 100% | – | – | –
13 | Cc1cccc(Oc2ncc(Cl)cn2)c1OS(=O)(=O)CCC(F)(F)F [Example I-29] | 90% | 100% | 100% | – | – | – | 90% | 100% | – | – | 90% | – | 100% | 100% | – | – | –
14 | O=S(=O)(CCCC(F)(F)F)Oc1c(Br)cccc1Oc1ncc(Cl)cn1 [Example I-30] | 90% | 100% | 100% | – | – | – | 90% | 90% | – | – | 100% | 90% | 100% | 100% | – | – | –
15 | O=S(=O)(CCC(F)(F)F)Oc1c(Br)cccc1Oc1ncc(Cl)cn1 [Example I-31] | 90% | 100% | 100% | – | – | – | – | 100% | – | – | 90% | – | 100% | 100% | – | – | –
16 | O=S(=O)(CC1CC1(Cl)Cl)Oc1c(F)cccc1Oc1ncc(Cl)cn1 (centres unmarked) [Example I-57] | – | 100% | 100% | – | – | – | 90% | 90% | – | – | 100% | 90% | 100% | 100% | – | 90% | –
